Assays:
cocklebur = experiment: Test B pre/postemergence cocklebur; type: in vivo, Xanthium strumarium
Procedure, shortened: (§1)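 Response is a visual 0-to-10 score relative to untreated plants, where 0 means no effect and 10 means complete control, taken twelve to sixteen days after application. Treatments went onto soil at planting and onto foliage of 1- to 4-leaf plants, using a surfactant-containing non-phytotoxic solvent.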

velvetleaf = experiment: Test B pre/postemergence velvetleaf; type: in vivo, Abutilon theophrasti
Procedure, shortened: as §1

sugar beet = experiment: Test B pre/postemergence sugar beet; type: in vivo, Beta vulgaris
Procedure, shortened: as §1

morningglory = experiment: Test B pre/postemergence morningglory; type: in vivo, Ipomoea hederacea
Procedure, shortened: as §1

duck salad = experiment: Test B flood test duck salad; type: in vivo, Heteranthera limosa
Procedure, shortened: (§2)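 Plants were grown to the 2-leaf stage before treatment with test chemical, then held in a greenhouse for twelve to sixteen days. Injury was visually rated against untreated controls on a 0–10 scale, where 0 is no effect and 10 is complete control.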

rice = experiment: Test B flood test rice; type: in vivo, Oryza sativa
Procedure, shortened: as §2

giant foxtail = experiment: Test B pre/postemergence giant foxtail; type: in vivo, Setaria faberii
Procedure, shortened: as §1

bamyardgrass = experiment: Test B flood test barnyardgrass; type: in vivo, Echinochloa crus-galli
Procedure, shortened: as §2

blackgrass = experiment: Test B pre/postemergence blackgrass; type: in vivo, Alopecurus myosuroides
Procedure, shortened: as §1

pigweed = experiment: Test B pre/postemergence pigweed; type: in vivo, Amaranthus retroflexus
Procedure, shortened: as §1

wild oat = experiment: Test B pre/postemergence wild oat; type: in vivo, Avena fatua
Procedure, shortened: as §1

wheat = experiment: Test B pre/postemergence wheat; type: in vivo, Triticum aestivum
Procedure, shortened: as §1

smallflower flatsedge = experiment: Test B flood test smallflower flatsedge; type: in vivo, Cyperus difformis
Procedure, shortened: as §2

soybean = experiment: Test B pre/postemergence soybean; type: in vivo, Glycine max
Procedure, shortened: as §1

rape = experiment: Test B pre/postemergence rape; type: in vivo, Brassica napus
Procedure, shortened: as §1

purple nutsedge = experiment: Test B pre/postemergence purple nutsedge; type: in vivo, Cyperus rotundus
Procedure, shortened: as §1

[1] = Postemergence, Rate 62 g/ha, scale 0 to 10, 0 is no effect, 10 is complete control
[2] = Postemergence, Rate 250 g/ha, scale 0 to 10, 0 no effect, 10 complete control
[3] = Preemergence, Rate 62 g/ha, scale 0 to 10 (0 no effect, 10 complete control)
[4] = Preemergence, Rate 125 g/ha, scale 0 to 10 (0 no effect, 10 complete control)
[5] = Preemergence, Rate 250 g/ha, scale of 0 to 10 where 0 is no effect and 10 is complete control
[6] = Preemergence, Rate 500 g/ha, scale 0 (no effect) to 10 (complete control)
[7] = Rate 125 g/ha, Postemergence, scale 0 to 10, 0 no effect, 10 complete control
[8] = Rate 500 g/ha, Postemergence, scale 0 to 10, 0 no effect, 10 complete control
[9] = Rate 125 g/ha, Postemergence section (flood test species), scale 0 to 10, 0 no effect, 10 complete control
[10] = Rate 500 g/ha, listed under Postemergence (flood test species), scale 0 to 10, 0 no effect, 10 complete control
[11] = flood test, listed under Postemergence, Rate 250 g/ha, scale 0 to 10, 0 no effect, 10 complete control

Cc1ccccc1Cn1c(=O)on(C(=O)N(C)c2ccccc2)c1=O [Compound 85]
0: Cocklebur plant response rating (cocklebur; [1]) | Cocklebur plant response rating (cocklebur; [2]) | Cocklebur plant response rating (cocklebur; [3]) | Plant response rating, Cocklebur (cocklebur; [4]) | Plant response rating, Cocklebur (cocklebur; [5]) | Cocklebur plant response rating (cocklebur; [6]) | Cocklebur plant response rating (cocklebur; [7]) | Cocklebur plant response rating (cocklebur; [8]) | Velvetleaf plant response rating (velvetleaf; [1]) | Velvetleaf plant response rating (velvetleaf; [2]) | Velvetleaf plant response rating (velvetleaf; [3]) | Plant response rating, Velvetleaf (velvetleaf; [4]) | Plant response rating, Velvetleaf (velvetleaf; [5]) | Velvetleaf plant response rating (velvetleaf; [6]) | Velvetleaf plant response rating (velvetleaf; [7]) | Velvetleaf plant response rating (velvetleaf; [8]) | Sugarbeets plant response rating (sugar beet; [1]) | Sugarbeets plant response rating (sugar beet; [2]) | Sugarbeets plant response rating (sugar beet; [3]) | Plant response rating, Sugarbeets (sugar beet; [4]) | Plant response rating, Sugarbeets (sugar beet; [5]) | Sugarbeets plant response rating (sugar beet; [6]) | Sugarbeets plant response rating (sugar beet; [7]) | Sugarbeets plant response rating (sugar beet; [8]) | Morningglory plant response rating (morningglory; [1]) | Morningglory plant response rating (morningglory; [2]) | Morningglory plant response rating (morningglory; [3]) | Plant response rating, Morningglory (morningglory; [4]) | Plant response rating, Morningglory (morningglory; [5]) | Morningglory plant response rating (morningglory; [6]) | Morningglory plant response rating (morningglory; [7]) | Morningglory plant response rating (morningglory; [8]) | Ducksalad plant response rating (duck salad; [1]) | Ducksalad plant response rating (duck salad; [9]) | Ducksalad plant response rating (duck salad; [10]) | Ducksalad plant response rating (duck salad; [11]) | Rice plant response rating (rice; [1]) | Rice plant response rating (rice; [9]) | Rice plant response rating (rice; [10]) | Rice plant response rating (rice; [11]) | Giant foxtail plant response rating (giant foxtail; [1]) | Giant foxtail plant response rating (giant foxtail; [2]) | Giant foxtail plant response rating (giant foxtail; [3]) | Plant response rating, Giant foxtail (giant foxtail; [4]) | Plant response rating, Giant foxtail (giant foxtail; [5]) | Giant foxtail plant response rating (giant foxtail; [6]) | Giant foxtail plant response rating (giant foxtail; [7]) | Giant foxtail plant response rating (giant foxtail; [8]) | Barnyardgrass plant response rating (bamyardgrass; [1]) | Barnyardgrass plant response rating (bamyardgrass; [9]) | Barnyardgrass plant response rating (bamyardgrass; [10]) | Barnyardgrass plant response rating (bamyardgrass; [11]) | Blackgrass plant response rating (blackgrass; [1]) | Blackgrass plant response rating (blackgrass; [2]) | Blackgrass plant response rating (blackgrass; [3]) | Plant response rating, Blackgrass (blackgrass; [4]) | Plant response rating, Blackgrass (blackgrass; [5]) | Blackgrass plant response rating (blackgrass; [6]) | Blackgrass plant response rating (blackgrass; [7]) | Blackgrass plant response rating (blackgrass; [8]) | Redroot pigweed plant response rating (pigweed; [1]) | Redroot pigweed plant response rating (pigweed; [2]) | Redroot pigweed plant response rating (pigweed; [3]) | Plant response rating, Redroot pigweed (pigweed; [4]) | Plant response rating, Redroot pigweed (pigweed; [5]) | Redroot pigweed plant response rating (pigweed; [6]) | Redroot pigweed plant response rating (pigweed; [7]) | Redroot pigweed plant response rating (pigweed; [8]) | Wild oats plant response rating (wild oat; [1]) | Wild oats plant response rating (wild oat; [2]) | Wild oats plant response rating (wild oat; [3]) | Plant response rating, Wild oats (wild oat; [4]) | Plant response rating, Wild oats (wild oat; [5]) | Wild oats plant response rating (wild oat; [6]) | Wild oats plant response rating (wild oat; [7]) | Wild oats plant response rating (wild oat; [8]) | Wheat plant response rating (wheat; [1]) | Wheat plant response rating (wheat; [2]) | Wheat plant response rating (wheat; [3]) | Plant response rating, Wheat (wheat; [4]) | Plant response rating, Wheat (wheat; [5]) | Wheat plant response rating (wheat; [6]) | Wheat plant response rating (wheat; [7]) | Wheat plant response rating (wheat; [8]) | S. Flatsedge plant response rating (smallflower flatsedge; [1]) | S. Flatsedge plant response rating (smallflower flatsedge; [9]) | S. Flatsedge plant response rating (smallflower flatsedge; [10]) | S. Flatsedge plant response rating (smallflower flatsedge; [11]) | Soybean plant response rating (soybean; [1]) | Soybean plant response rating (soybean; [2]) | Soybean plant response rating (soybean; [3]) | Plant response rating, Soybean (soybean; [4]) | Plant response rating, Soybean (soybean; [5]) | Soybean plant response rating (soybean; [6]) | Soybean plant response rating (soybean; [7]) | Soybean plant response rating (soybean; [8]) | Rape plant response rating (rape; [1]) | Rape plant response rating (rape; [2]) | Rape plant response rating (rape; [3]) | Plant response rating, Rape (rape; [4]) | Plant response rating, Rape (rape; [5]) | Rape plant response rating (rape; [6]) | Rape plant response rating (rape; [7]) | Rape plant response rating (rape; [8]) | Nutsedge plant response rating (purple nutsedge; [1]) | Nutsedge plant response rating (purple nutsedge; [2]) | Nutsedge plant response rating (purple nutsedge; [3]) | Plant response rating, Nutsedge (purple nutsedge; [4]) | Plant response rating, Nutsedge (purple nutsedge; [5]) | Nutsedge plant response rating (purple nutsedge; [6]) | Nutsedge plant response rating (purple nutsedge; [7]) | Nutsedge plant response rating (purple nutsedge; [8])
